Assay results published in PMC10569036.

Experiment: shake flask on a mixture of 185; loss from the water phase only; LC-Orbitrap peak areas
Conditions: room

Structure (SMILES)	log partition 1-octanol / HPLC water, unbuffered, traces of methanol / DMSO [log10]	log partition butyl acetate / HPLC water, unbuffered, traces of methanol / DMSO [log10]	log partition chloroform / HPLC water, unbuffered, traces of methanol / DMSO [log10]	log partition cyclohexane / HPLC water, unbuffered, traces of methanol / DMSO [log10]	log partition dichloromethane / HPLC water, unbuffered, traces of methanol / DMSO [log10]	log partition n-hexane / HPLC water, unbuffered, traces of methanol / DMSO [log10]	log partition n-octane / HPLC water, unbuffered, traces of methanol / DMSO [log10]	log partition n-undecane / HPLC water, unbuffered, traces of methanol / DMSO [log10]	log partition oleylalcohol / HPLC water, unbuffered, traces of methanol / DMSO [log10]	log partition toluene / HPLC water, unbuffered, traces of methanol / DMSO [log10]
OC(c1ccc(F)cc1)(c1cncnc1)c1ccccc1Cl (centres unmarked)	2.087	2.226	2.317	2.077	2.933	1.642	1.699	1.456	1.561	2.565
O=P(OC(CCl)CCl)(OC(CCl)CCl)OC(CCl)CCl	0.3708	0.4116	0.2335	0.5355	0.1218	0.2465	0.2541	0.3474	0.1893	0.1777
CC(=O)Nc1ccc(C)cc1C	0.5136	0.7692	0.52	–	0.8573	–	–	–	0.7926	0.01564
CCOc1ccc2c(c1)C(C)CC(C)(C)N2 (centres unmarked)	1.166	0.4802	0.1266	0.1355	0.03099	0.4617	0.03342	0.09286	0.8298	-0.1412
CCCCNS(=O)(=O)c1ccccc1	0.09093	-0.4267	0.044	-0.2649	-0.02662	-0.2215	-0.4356	-0.4781	0.1238	-0.1107
O=C1C=CC(=O)N1c1ccc(Cc2ccc(N3C(=O)C=CC3=O)cc2)cc1	-0.1715	-0.4086	-0.4673	-0.523	0.07258	-0.4156	-0.5042	-0.6476	-0.3131	0.01296
O=C1OC(=O)C2C3C=CC(C3)C12 (centres unmarked)	-0.9913	-0.2228	0.8465	-0.9247	1.732	-0.7252	-1.742	-1.577	0.1202	0.5941
O=C(O)CCN(C1(C(=O)NO)CCCC1)S(=O)(=O)c1ccc(Oc2ccc(F)cc2)cc1	-0.5893	1.182	0.09364	-1.331	0.4348	-1.472	-1.686	0.1413	0.5204	-0.3191
Oc1c(Cl)ccc(Cl)c1Cl	-0.2337	-1.606	0.7523	0.2263	-0.3412	-0.04129	0.4223	-0.1707	-0.8397	-0.4023
CCOC(=O)CC(=O)c1ccccc1	-0.2282	-0.1902	0.1944	-1.116	-0.2025	-1.048	-1.147	-0.8216	-0.4257	-0.3454
CC(C)(C#N)Nc1nc(Cl)nc(NC2CC2)n1	2.353	1.721	2.761	-0.1053	2.268	-0.13	0.2329	-0.4376	1.837	1.234
FC(F)C(F)(F)OCC(Cn1cncn1)c1ccc(Cl)cc1Cl (centres unmarked)	1.148	1.223	0.6534	0.9109	1.238	0.4737	0.5004	0.1193	0.4709	1.159
CN(C)c1ccc(Cc2ccc(N(C)C)cc2)cc1	0.3418	1.067	3.139	0.5577	2.123	-0.5531	0.3458	-0.4236	-0.165	1.554
CCCCC(O)(Cn1cncn1)c1ccc(Cl)cc1Cl (centres unmarked)	3.35	5.299	1.307	3.351	4.823	2.027	2.104	2.029	3.139	4.525
CCCCCCCCCCCCN1CCCCCC1=O	-0.1202	-1.099	0.3816	-0.5564	-0.008559	-0.8813	-0.4901	-0.9092	-0.7875	-0.5083
